Assay results from US20040063626A1 (priority 2000, published 2004).

System: C57BL/6 mice
Assay: Hair regrowth test on shaved backs of C57BL/6 mice
Format: in vivo
Details: 100 μl (0.1% w/v) applied over hair removed area once a day for 30 days; female C57BL/6 mice
Description: C57BL/6 mice (female), 42˜49 days old, were used in this test.
First of all, mice were removed of hair on their backs using an electric shaver, and weighed. The mice were divided into several groups with weights equally distributed. […] The degree of hair growth was observed by naked eye and the back sides of the mice were photographed.

Substance | degree of hair growth observed by naked eye (hair regrowth effect)
Cyclosporin A 4,7-bis(thioamide) | no significant effect
Cyclosporin A 4-thioamide | no significant effect
